For orientation: melting point means the temperature of the solid-liquid transition.

“And” between values parts separate entries of the source, which are not always exact repeats. Equal entries are not always repeated.

Our source for the melting point values is the Bradley open melting point set (2014).

As to `CCCCCCCCCCCCCCCCCCCC` [N-eicosane], the melting point is 37 °C.
`Oc1cccc(O)c1` [Resorcinol] had a melting point of 111 °C.
With `Nc1c(Br)cccc1Br` [2,6-dibromoaniline] the figure was 81 °C.
Turning to `Cc1ccccc1O` [o-Cresol], the melting point was found to be 33 °C.
With `N[C@H](Cc1ccccc1F)C(=O)O` [2-fluoro-D-phenylalanine] the figure was 210 °C.
Take `Clc1ccc(-c2cc(Cl)ccc2Cl)cc1` [PCB-31]: the melting point is 65 °C.
Regarding `CCOCCO` [2-ethoxyethanol], the melting point was -90 °C.
As for `CC1=CC(C)=NC2N=NC(N)=C12` (stereo unspecified) [4,6-Dimethyl-2H-pyrazolo[3,4-b]pyridin-3-amine], the figure is 280 °C; as for `c1ccc(Nc2ccccc2)cc1` [N-Phenylaniline], 53 °C.
In turn, `OC[C@@H](O)COCc1ccccc1` [(2R)-3-(Benzyloxy)propane-1,2-diol] showed a melting point of 27.5 °C.
As for `NC(=O)c1cc(Cl)cc(Cl)c1` [3,5-dichlorobenzamide], the figure is 160 °C; as for `CC#CCOS(=O)(=O)c1ccc(C)cc1` [2-butynyl p-toluenesulfonate], 48 °C; as for `Nc1cc([N+](=O)[O-])ccc1Cl` [2-chloro-5-nitroaniline], 119 °C.
Consider `Cc1ccc(/N=N/c2ccc(N(C)C)cc2)cc1` [4-dimethylamino-4'-methylazobenzene], for which the melting point amounted to 166 °C.
As to `CCCCCCCCBr` [1-bromooctane], the melting point was -55 °C.
With `CCCCOC(=O)CCC` [butyl butyrate] the figure was -92 °C (3×) and -91.5 °C (2×).
With `O=C1C=CC(=O)C2CC3=C(CC4=C(C3)CC3C(=O)C=CC(=O)C3C4)CC12` (stereo unspecified), the melting point turned out to be 338 °C.
With `O=S(=O)(O)C(F)(F)F` [trifluoromethanesulfonic acid] the figure was -40 °C; with `Oc1ccc(Cl)cc1Cl` [2,4-Dichlorophenol], 42.5 °C; with `CCc1ccccc1` [ethylbenzene], -95 °C.
As for `C=C(C)c1ccccc1` [2-phenyl-1-propene], the figure is -23 °C; as for `CC(=O)NC1C2CCC(C)(C1NC(C)=O)C2(C)C` (stereo unspecified), 250 °C.
As for `Nc1ccccc1Oc1ccccc1` [2-phenoxyaniline], the figure is 47 °C; as for `COc1ccc(/C=C/C(=O)c2ccccc2)cc1OC` [3,4-dimethoxychalcone], 89 °C.
Compound `CC(C)(C)O` [tert-butyl alcohol, anhydrous] yielded a melting point of 25 °C.
As for `Nc1ccc([N+](=O)[O-])cc1Cl` [2-chloro-4-nitroaniline], the figure is 108 °C; as for `C#CCON1C(=O)c2ccccc2C1=O` [N-propargyloxyphthalimide], 151 °C.
On to `COc1cc(C(=O)O)ccc1O` [vanillic acid], for which the melting point turned out to be 214 °C.
As for `O=C(O)/C(=C/c1ccc([N+](=O)[O-])cc1)c1ccc(F)cc1` [(E)-2-(4-Fluorophenyl)-3-(4-nitrophenyl)propenoic acid], the figure is 242 °C; as for `Cl[C@H]1[C@H](Cl)[C@@H](Cl)[C@H](Cl)[C@H](Cl)[C@H]1Cl` [(1R,2R,3R,4R,5S,6S)-1,2,3,4,5,6-Hexachlorocyclohexane], 159 °C.
With `Clc1cc(Cl)c(-c2cc(Cl)c(Cl)cc2Cl)cc1Cl` [PCB-153] the figure was 103 °C.
In turn, `ClC1=C(Cl)C2(Cl)C3C(Cl)C(Cl)CC3C1(Cl)C2(Cl)Cl` (stereo not drawn) [trans-gamma-chlordane] returned a melting point of 106 °C.
As for `C[C@@H](CN1CC(=O)NC(=O)C1)N1CC(=O)NC(=O)C1` [Dexrazoxane], the figure is 194 °C; as for `CCOC(C)OCC` [acetaldehyde diethyl acetal], -100 °C.
With `C=CCCCCCCCCCCCCCCCCCC` [1-eicosene] the figure was 29 °C; with `Cc1cccc(C(C)(C)C)c1` [1-methyl-3-tert-butylbenzene], -41 °C.
